How the values were obtained:
[1] = system: Aβ42 from human neuroblastoma cells (hDAT; SK-N-MC); assay: Aβ42 ELISA, human neuroblastoma cells transiently transfected with APPsw; type: cell-based; conditions: 200 μM, 24 hours, p<0.001, n=11
Procedure: Human neuroblastoma cells (hDAT; SK-N-MC stably overexpression human dopamine transporter) were routinely maintained in DMEM supplemented with sodium pyruvate (1 mM) and 10% fetal bovine serum. […] Subsequently, 48 hours post-transfection the cells were rinsed with PBS and treated with vehicle (0.1% DMSO) or 100-200 μM pirinixic acid in serum free/phenol free DMEM for 24 hours. After the pharmacological treatment, the exposure media was collected and supplemented with 10% sample treatment buffer (40 mM sodium phosphate (pH 7.4), 40 mM triethanolamine, 0.1% Triton X-100, 200 mM NaCl, 2 mM EGTA, 0.1% Sodium azide), and assayed for either Aβ40 or AP42 by a calorimetric ELISA as per the manufacturer's protocol (Biosource International Inc, California). The cells were lysed in 0.1% Triton X-100 in PBS supplemented with 5 μM Propridium Iodide (Molecular probes, Eugene, Oreg.) and incubated at 37° C. for 30 minutes prior to measuring fluorescence. Secreted Aβ40 and Aβ42 levels were standardized against propridium iodide fluorescence as a measure of total cell number. Data are expressed as a percent of control and represent the mean±SD with n=11 and statistical significance determined by ANOVA with a Tukey's post hoc test at ***p<0.001.

[2] = system: Aβ40 production and/or release from SM-4 cells; assay: Aβ40 ELISA of culture media from SM-4 cells; type: cell-based; conditions: 10-500 μM, 16 hrs
Procedure: Cell Lines and Pharmacological Treatments. 293 EBNA cells (InVitrogen, Carlsbad, Calif.) stably transfected with Swedish mutant β-Amyloid Precursor Protein -695 (SM4 cells) were routinely maintained in DMEM supplemented with sodium pyruvate (1 mM) and 10% fetal bovine serum. Cells were seeded into poly-D-Lysine (SIGMA) coated 6-well plates at a density of 5-7×10^5 cells per well. Subsequently, the cells were rinsed in 1 ml of PBS and treated with 10-500 μM of pirinixic acid in serum-free/phenol red-free DMEM for 16 hours. Aβ Detection and Standardization. After the pharmacological treatment, the exposure media was collected and supplemented with 10% sample treatment buffer (40 mM sodium phosphate (pH 7.4), 40 mM triethanolamine, 0.1% Triton X-100, 200 mM NaCl, 2 mM EGTA, 0.1% Sodium azide), and assayed for either Aβ40 or Aβ42 by a calorimetric ELISA as per the manufacturer's protocol (Biosource International Inc, California). The cells were lysed in 0.1% Triton X-100 in PBS supplemented with 5 μM propridium iodide (Molecular Probes, Eugene, Oreg.) and incubated at 37° C. for 30 minutes prior to measuring fluorescence. Aβ40 and Aβ42 were standardized against propridium iodide fluorescence as a measure of total cell number. 293 EBNA cells (InVitrogen, Carlsbad, Calif.) stably transfected with Swedish mutant β-Amyloid Precursor Protein -695 (SM4 cells) were routinely maintained in DMEM supplemented with sodium pyruvate (1 mM) and 10% fetal bovine serum. […] The cells were lysed in 0.1% Triton X-100 in PBS supplemented with 5 μM propridium iodide (Molecular Probes, Eugene, Oreg.) and incubated at 37° C. for 30 minutes prior to measuring fluorescence. Aβ40 and Aβ42 were standardized against propridium iodide fluorescence as a measure of total cell number. […] The cells were lysed in 0.1% Triton X-100 in PBS supplemented with 5 μM propridium iodide (Molecular Probes, Eugene, Oreg.) and incubated at 37° C. for 30 minutes prior to measuring fluorescence. Aβ40 and Aβ42 were standardized against propridium iodide fluorescence as a measure of total cell number.

## Cc1cccc(Nc2cc(Cl)nc(SCC(=O)O)n2)c1C [pirinixic acid]
[1]
  decrease in Aβ42: 40%
[2]
  change in Aβ40 production and/or release: no significant change

Source: patent US20030191144A1, “Compounds, compositions and methods for modulating beta-amyloid production” (Active Pass Pharmaceuticals, Inc., priority 2001, published 2003)
